Source: PMC6979384, “Characterization of the plant homeodomain (PHD) reader family for their histone tail interactions” (Epigenetics & Chromatin, 2020)

Key:
Assay in all cases: Histone peptide microarray
Type in all cases: binding, human
ING2 = settings: for Array Heatmap value (peptide array signal): ING2, sheet "Array Heatmap", each array performed twice, total n = 4
Procedure, shortened: (§1)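 Steps: express and purify GST-tagged PHD reader; incubate 0.5 μM protein on a peptide microarray (293 histone peptides, single or combined PTMs) following an optimized protocol; average signal across 4 replicates.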

KDM5B (1) = settings: KDM5B (1); for Array Heatmap value (peptide array signal): sheet "Array Heatmap", each array performed twice, total n = 4
Procedure, shortened: as §1

CHD4 (PPCC) = settings: CHD4 (PPCC); for Array Heatmap value (peptide array signal): sheet "Array Heatmap", each array performed twice, total n = 4
Procedure, shortened: as §1

RAG2 = settings: for Array Heatmap value (peptide array signal): RAG2, sheet "Array Heatmap", each array performed twice, total n = 4
Procedure, shortened: as §1

BPTF (PB) = settings: BPTF (PB); for Array Heatmap value (peptide array signal): sheet "Array Heatmap", each array performed twice, total n = 4
Procedure, shortened: as §1

KDM5A (3) = settings: KDM5A (3); for Array Heatmap value (peptide array signal): sheet "Array Heatmap", each array performed twice, total n = 4
Procedure, shortened: as §1

PHRF1 (RP) = settings: PHRF1 (RP); for Array Heatmap value (peptide array signal): sheet "Array Heatmap", each array performed twice, total n = 4
Procedure, shortened: as §1

TAF3 = settings: for Array Heatmap value (peptide array signal): TAF3, sheet "Array Heatmap", each array performed twice, total n = 4
Procedure, shortened: as §1

KDM5B (3) = settings: KDM5B (3); for Array Heatmap value (peptide array signal): sheet "Array Heatmap", each array performed twice, total n = 4
Procedure, shortened: as §1

ING5 = settings: for Array Heatmap value (peptide array signal): ING5, sheet "Array Heatmap", each array performed twice, total n = 4
Procedure, shortened: as §1

TRIM66 (PB) = settings: TRIM66 (PB); for Array Heatmap value (peptide array signal): sheet "Array Heatmap", each array performed twice, total n = 4
Procedure, shortened: as §1

ING3 = settings: for Array Heatmap value (peptide array signal): ING3, sheet "Array Heatmap", each array performed twice, total n = 4
Procedure, shortened: as §1

KDM4C (TTP) = settings: KDM4C (TTP); for Array Heatmap value (peptide array signal): sheet "Array Heatmap", each array performed twice, total n = 4
Procedure, shortened: as §1

PHF13 = settings: for Array Heatmap value (peptide array signal): PHF13, sheet "Array Heatmap", each array performed twice, total n = 4
Procedure, shortened: as §1

CHD5 (PCC) = settings: CHD5 (PCC); for Array Heatmap value (peptide array signal): sheet "Array Heatmap", each array performed twice, total n = 4
Procedure, shortened: as §1

PHF2 = settings: for Array Heatmap value (peptide array signal): PHF2, sheet "Array Heatmap", each array performed twice, total n = 4
Procedure, shortened: as §1

DPF2 (PPC2W2) = settings: DPF2 (PPC2W2); for Array Heatmap value (peptide array signal): sheet "Array Heatmap", each array performed twice, total n = 4
Procedure, shortened: as §1

ING4 = settings: for Array Heatmap value (peptide array signal): ING4, sheet "Array Heatmap", each array performed twice, total n = 4
Procedure, shortened: as §1

MLL5 = settings: for Array Heatmap value (peptide array signal): MLL5, sheet "Array Heatmap", each array performed twice, total n = 4
Procedure, shortened: as §1

KDM7A = settings: KDM7A; for Array Heatmap value (peptide array signal): sheet "Array Heatmap", each array performed twice, total n = 4
Procedure, shortened: as §1

DIDO1 = settings: for Array Heatmap value (peptide array signal): DIDO1, sheet "Array Heatmap", each array performed twice, total n = 4
Procedure, shortened: as §1

KDM5A (1) = settings: KDM5A (1); for Array Heatmap value (peptide array signal): sheet "Array Heatmap", each array performed twice, total n = 4
Procedure, shortened: as §1

PHF21A = settings: PHF21A; for Array Heatmap value (peptide array signal): sheet "Array Heatmap", each array performed twice, total n = 4
Procedure, shortened: as §1

PHF8 = settings: for Array Heatmap value (peptide array signal): PHF8, sheet "Array Heatmap", each array performed twice, total n = 4
Procedure, shortened: as §1

CHD5 (PPCC) = settings: CHD5 (PPCC); for Array Heatmap value (peptide array signal): sheet "Array Heatmap", each array performed twice, total n = 4
Procedure, shortened: as §1

BAZ2B = settings: BAZ2B; for Array Heatmap value (peptide array signal): sheet "Array Heatmap", each array performed twice, total n = 4
Procedure, shortened: as §1

AIRE (PP) = settings: AIRE (PP); for Array Heatmap value (peptide array signal): sheet "Array Heatmap", each array performed twice, total n = 4
Procedure, shortened: as §1

PHF23 = settings: for Array Heatmap value (peptide array signal): PHF23, sheet "Array Heatmap", each array performed twice, total n = 4
Procedure, shortened: as §1

ING1 = settings: for Array Heatmap value (peptide array signal): ING1, sheet "Array Heatmap", each array performed twice, total n = 4
Procedure, shortened: as §1

SP140L = settings: SP140L; for Array Heatmap value (peptide array signal): sheet "Array Heatmap", each array performed twice, total n = 4
Procedure, shortened: as §1

MORC3 (CW) = settings: MORC3 (CW); for Array Heatmap value (peptide array signal): sheet "Array Heatmap", each array performed twice, total n = 4
Procedure, shortened: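 GST-tagged PHD readers, 0.5 μM, probed on a microarray of 293 synthetic histone peptides carrying single or combinatorial PTMs (optimized Petell protocol). Signals are averaged over 4 replicates and expressed as relative binding.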

[1] = GST-tagged, arrays performed twice, n of 4

H4K5butK8butK12but: H4 1-23
Array Heatmap value (peptide array signal) (ING2): 0.5892
Array Heatmap value (peptide array signal) (KDM5B (1)): 0.5776
Array Heatmap value (peptide array signal) (CHD4 (PPCC)): 0.5302
Array Heatmap value (peptide array signal) (RAG2): 0.2246
Array Heatmap value (peptide array signal) (BPTF (PB)): 0.3272
Array Heatmap value (peptide array signal) (KDM5A (3)): 0.4238
Array Heatmap value (peptide array signal) (PHRF1 (RP)): 0.4335
Array Heatmap value (peptide array signal) (TAF3): 0.2569
Array Heatmap value (peptide array signal) (KDM5B (3)): 0.4196
Array Heatmap value (peptide array signal) (ING5): 0.3275
Array Heatmap value (peptide array signal) (TRIM66 (PB)): 0.5547
Array Heatmap value (peptide array signal) (ING3): 0.4441
Array Heatmap value (peptide array signal) (KDM4C (TTP)): 0.4273
Array Heatmap value (peptide array signal) (PHF13): 0.5714
Array Heatmap value (peptide array signal) (CHD5 (PCC)): 0.661
Array Heatmap value (peptide array signal) (PHF2): 0.5429
Array Heatmap value (peptide array signal) (DPF2 (PPC2W2)): 0.6505
Array Heatmap value (peptide array signal) (ING4): 0.4352
Array Heatmap value (peptide array signal) (MLL5): 0.5293
Array Heatmap value (peptide array signal) (KDM7A): 0.3032
Array Heatmap value (peptide array signal) (DIDO1): 0.6712
Array Heatmap value (peptide array signal) (KDM5A (1)): 0.419
Array Heatmap value (peptide array signal) (PHF21A): 0.3738
Array Heatmap value (peptide array signal) (PHF8): 0.3282
Array Heatmap value (peptide array signal) (CHD5 (PPCC)): 0.5134
Array Heatmap value (peptide array signal) (BAZ2B): 0.414
Array Heatmap value (peptide array signal) (AIRE (PP)): 0.3828
Array Heatmap value (peptide array signal) (PHF23): 0.5206
Array Heatmap value (peptide array signal) (ING1): 0.5532
Array Heatmap value (peptide array signal) (SP140L): 0.3551
Array Heatmap value (peptide array signal) (MORC3 (CW)): 0.3355

H4K5crK8crK12cr: H4 1-23
Array Heatmap value (peptide array signal) (ING2): 0.5899
Array Heatmap value (peptide array signal) (KDM5B (1)): 0.5237
Array Heatmap value (peptide array signal) (CHD4 (PPCC)): 0.5037
Array Heatmap value (peptide array signal) (RAG2): 0.2029
Array Heatmap value (peptide array signal) (BPTF (PB)): 0.277
Array Heatmap value (peptide array signal) (KDM5A (3)): 0.3558
Array Heatmap value (peptide array signal) (PHRF1 (RP)): 0.3292
Array Heatmap value (peptide array signal) (TAF3): 0.2134
Array Heatmap value (peptide array signal) (KDM5B (3)): 0.4017
Array Heatmap value (peptide array signal) (ING5): 0.2562
Array Heatmap value (peptide array signal) (TRIM66 (PB)): 0.525
Array Heatmap value (peptide array signal) (ING3): 0.3926
Array Heatmap value (peptide array signal) (KDM4C (TTP)): 0.3678
Array Heatmap value (peptide array signal) (PHF13): 0.5013
Array Heatmap value (peptide array signal) (CHD5 (PCC)): 0.6269
Array Heatmap value (peptide array signal) (PHF2): 0.4485
Array Heatmap value (peptide array signal) (DPF2 (PPC2W2)): 0.6037
Array Heatmap value (peptide array signal) (ING4): 0.3713
Array Heatmap value (peptide array signal) (MLL5): 0.4572
Array Heatmap value (peptide array signal) (KDM7A): 0.2744
Array Heatmap value (peptide array signal) (DIDO1): 0.571
Array Heatmap value (peptide array signal) (KDM5A (1)): 0.3568
Array Heatmap value (peptide array signal) (PHF21A): 0.3861
Array Heatmap value (peptide array signal) (PHF8): 0.292
Array Heatmap value (peptide array signal) (CHD5 (PPCC)): 0.4173
Array Heatmap value (peptide array signal) (BAZ2B): 0.3353
Array Heatmap value (peptide array signal) (AIRE (PP)): 0.3482
Array Heatmap value (peptide array signal) (PHF23): 0.4763
Array Heatmap value (peptide array signal) (ING1): 0.4798
Array Heatmap value (peptide array signal) (SP140L): 0.3203
Array Heatmap value (peptide array signal) (MORC3 (CW)): 0.2832

H4K5me1: H4 1-23 [Peptide H4K5me1]
Array Heatmap value (peptide array binding signal) (ING2; ING2, GST-tagged, arrays performed twice, n of 4): 0.6422
Array Heatmap value (peptide array binding signal) (KDM5B (1); [1]): 0.6332
Array Heatmap value (peptide array binding signal) (CHD4 (PPCC); [1]): 0.6385
Array Heatmap value (peptide array binding signal) (RAG2; RAG2, GST-tagged, arrays performed twice, n of 4): 0.3031
Array Heatmap value (peptide array binding signal) (BPTF (PB); [1]): 0.4183
Array Heatmap value (peptide array binding signal) (KDM5A (3); [1]): 0.517
Array Heatmap value (peptide array binding signal) (PHRF1 (RP); [1]): 0.5306
Array Heatmap value (peptide array binding signal) (TAF3; TAF3, GST-tagged, arrays performed twice, n of 4): 0.3308
Array Heatmap value (peptide array binding signal) (KDM5B (3); [1]): 0.5457
Array Heatmap value (peptide array binding signal) (ING5; ING5, GST-tagged, arrays performed twice, n of 4): 0.4376
Array Heatmap value (peptide array binding signal) (TRIM66 (PB); [1]): 0.6456
Array Heatmap value (peptide array binding signal) (ING3; ING3, GST-tagged, arrays performed twice, n of 4): 0.5888
Array Heatmap value (peptide array binding signal) (KDM4C (TTP); [1]): 0.5708
Array Heatmap value (peptide array binding signal) (PHF13; PHF13, GST-tagged, arrays performed twice, n of 4): 0.7061
Array Heatmap value (peptide array binding signal) (CHD5 (PCC); [1]): 0.8576
Array Heatmap value (peptide array binding signal) (PHF2; PHF2, GST-tagged, arrays performed twice, n of 4): 0.6413
Array Heatmap value (peptide array binding signal) (DPF2 (PPC2W2); [1]): 0.7706
Array Heatmap value (peptide array binding signal) (ING4; ING4, GST-tagged, arrays performed twice, n of 4): 0.5451
Array Heatmap value (peptide array binding signal) (MLL5; MLL5, GST-tagged, arrays performed twice, n of 4): 0.6366
Array Heatmap value (peptide array binding signal) (KDM7A; [1]): 0.4052
Array Heatmap value (peptide array binding signal) (DIDO1; DIDO1, GST-tagged, arrays performed twice, n of 4): 0.8543
Array Heatmap value (peptide array binding signal) (KDM5A (1); [1]): 0.5517
Array Heatmap value (peptide array binding signal) (PHF21A; [1]): 0.5236
Array Heatmap value (peptide array binding signal) (PHF8; PHF8, GST-tagged, arrays performed twice, n of 4): 0.4273
Array Heatmap value (peptide array binding signal) (CHD5 (PPCC); [1]): 0.6548
Array Heatmap value (peptide array binding signal) (BAZ2B; [1]): 0.543
Array Heatmap value (peptide array binding signal) (AIRE (PP); [1]): 0.4948
Array Heatmap value (peptide array binding signal) (PHF23; PHF23, GST-tagged, arrays performed twice, n of 4): 0.6043
Array Heatmap value (peptide array binding signal) (ING1; ING1, GST-tagged, arrays performed twice, n of 4): 0.6473
Array Heatmap value (peptide array binding signal) (SP140L; [1]): 0.3991
Array Heatmap value (peptide array binding signal) (MORC3 (CW); [1]): 0.4265
